The values below come from US20120070493A1, “TARGETED MULTI-EPITOPE DOSAGE FORMS FOR INDUCTION OF AN IMMUNE RESPONSE TO ANTIGENS” (Selecta Biosciences, Inc., priority 2010, published 2012).

Square brackets hold non-standard residues; d marks the D form. Ends that are not written are not given here.

For experiment [1], the system named is CD4+/CD45RAlow/CD62Lhigh central memory T-cells (human PBMC). The format is cell-based. Conditions: for memory T-cell recall response, influenza epitopes: 5 PBMC donors, FIG. 14; for response of individual peptides and of heterodimeric peptides lacking a cathepsin cleavage site, compared with the response to this peptide: 4 donors, the comparators were the weaker ones, not the labelled peptide.

In experiment [2] the test system is MHC Class II (HLADP, HLADQ and HLADR alleles). As to conditions: previously described peptide, Virology 326 (2004) 220-230; cited from earlier work.
The test system of experiment [3] is CD4+/CD45RAlow/CD62Lhigh central memory T-cells. Nature of the experiment: dendritic cell/CD4 T-cell co-culture, multi-color intracellular cytokine analysis. The format is cell-based, human. As to conditions: for IFN-γ expression in peptide specific central memory T-cells / IL-4 expression in peptide specific central memory T-cells / TNF-α expression in peptide specific central memory T-cells: DC/CD4 co-culture with or without peptide, FIGS. 7 and 8; for co-expression of TNF-α and IFN-γ / co-expression of TNF-α and IL-4: multiple color flow cytometry, FIG. 9. As for the experimental part:
Early central memory T-cells express multiple cytokines (IL-2, TNF-α, IFN-γ) when re-activated with specific peptides, whereas committed effector memory T-cells are thought to selectively express IL-4 for TH2 committed effector memory, and IFN-γ for TH1 committed effector memory. The status of peptide activated memory T-cells was tested using multi-color intracellular cytokine analysis of dendritic cell/CD4 cell co-cultures.
Human peripheral blood monocytes were isolated using negative-selection magnetic beads (Dynal) and cultured in the presence of GM-CSF and IL-4 for 1 week in order to induce differentiation into dendritic cells. Allogeneic CD4 T cells were isolated using magnetic bead separation (Dynal) and co-cultured in the presence of DCs in the presence or absence of peptide. The protocol for stimulation and analysis from that point is identical to that for PBMC described above in Example 2.

For the next experiment, the system named is human PBMC. The experiment can be described thus: interferon gamma Elispot, peptide-stimulated PBMC. It counts as cell-based. As to conditions: 10 μM peptide; for memory T-cell response (IFN-γ Elispot spots, normalized to non-stimulated controls): 18 hours, 5 donors, FIG. 22; for number of donors showing a recall: out of 5 donors. As for the experimental part:
The potency of single epitopes and chimeric epitopes have been evaluated by stimulating human PBMC with peptides in vitro for 18 hours and then analyzing the cells by Elispot. Briefly, whole blood was obtained from Research Blood Components (Cambridge). Blood was diluted in phosphate buffered saline (PBS) and then overlaid on top of Ficoll-paque premium (GE Healthcare) in a 50 mL tube. Tubes were spun for 30 minutes, and the transition phase PBMCs collected, diluted in PBS with 10% fetal calf serum (FCS) and spun for 10 minutes. Cells were resuspended in cell freezing media (Sigma) and immediately frozen at −80 C overnight. For long term storage, cells were transferred to liquid nitrogen. Cells were thawed as needed and resuspended in PBS 10% FCS, spun down and resuspended to 1×10^7 cells/mL in culture media (RPMI [cellgro]), supplemented with 10% heat inactivated fetal calf serum (Sigma) l-glutamine, penicillin and streptomycin).
The Elispot assay was performed using an interferon gamma Elispot kit (Mabtech). Briefly the Elispot was performed by coating 96 well filter plates with an IFN-γ capture antibody, then blocked with complete culture media containing 10% FCS to prevent non-specific binding. PBMC (1×10^6 cells) were plated in the antibody pre-coated Elispot plates with or without 10 μM peptide. Positive control wells were stimulated with 10 μg/mL PHA. Elispot plates were incubated for 18 hours at 37° C. followed by coating with biotinylated anti-IFN-γ secondary antibody for 2 hours at room temperature. Elispot plates were then washed and IFN-γ spots developed using 3-amino-9-ethylcarbazole, dimethylformamide, and hydrogen peroxide in acetate buffer. IFN-γ positive Elispot counts were evaluated by an outside vendor (Zelnet) and the number of spots scored per 10 million cells.

Take “CSQRSKFLLMDALKLkvsvrLIFLARSALILR [AAWkAAT]”: the “memory T-cell recall response, influenza epitopes” value (from here on “memory T-cell recall response”) in experiment [1] (4 μM peptide) is “positive”. Regarding DFHFEVFNFVPCSI [RSVG162-175], in experiment [2], the “Affinity (HLA Class II type bound)” value is listed as “(HLADP)”. As to EKIVLLFAIVSLVKSDQICI [ABW9], in experiment [1] (4 μM peptide), the “memory T-cell recall response” value is reported as “not”. On to “ILMQYIKANSKFIGI QSIALSSLMVAQTLLYVLFEV (ILMQYIKANSKFIGIQSIALSSLMVAQTLLYVLFEV) [TT830DTAdV]”, for which the “number of donors showing a recall response” value in experiment [1] worked out at 4 donors. Consider “ILMQYIKANSKFIGIPMGLPQSIALSSLMVAQ [TT830pmglpDTt]”, for which, in experiment [1] (human PBMC, 4 μM peptide), the “effect of inclusion of a cathepsin cleavage site on the response, compared with TT830DTt” value is recorded as “enhanced the response”; the “recall activity compared with identical peptide without cleavage site (TT830DT)” value is listed as “better than a peptide identical except without a cleavage site (TT830DT)”; the “recall activity compared with individual components TT830 and DT alone” value is “more active than its individual components (TT830 and DT) alone”. Further, the “number of activated central memory T-cells (percent CD62L+/IFN-γ+ cells, normalized to non-stimulated)” value in experiment [1] (human PBMC, 4 μM peptide, 20 donors, FIG. 5) is “highest response”. The “number of donors positive for memory T-cells responding to peptide” value in experiment [1] (out of 20 donors, positive if greater than 0.08% responding central memory T-cells, FIG. 6) was 20/20. In experiment [3], the “IFN-γ expression in peptide specific central memory T-cells” value is given as “increased expression”; the “IL-4 expression in peptide specific central memory T-cells” value is “not IL-4”; the “TNF-α expression in peptide specific central memory T-cells” value is “increased expression”; the “co-expression of TNF-α and IFN-γ” value was “peptide induced co-expression”. Further, the “co-expression of TNF-α and IL-4” value in experiment [3] is given as “not co-expression”.

ILMQYIKANSKFIGIQSIALSSLMVAQ [TT830DTt]: in experiment [3], the “co-expression of TNF-α and IFN-γ” value is listed as “peptide induced co-expression”; the “co-expression of TNF-α and IL-4” value is “not co-expression”.

On to “ILMQYIKANSKFIGIQSIALSSLMVAQAIPLVGEL [TT830DT]”, for which, in experiment [3], the “IFN-γ expression in peptide specific central memory T-cells” value is “increased expression”, the “IL-4 expression in peptide specific central memory T-cells” value is “not IL-4” and the “TNF-α expression in peptide specific central memory T-cells” value is “increased expression”. As to “ILSIYSTVASSLALAIkvsvrLIFLARSALILR [ABW2kAAT]”, in experiment [1] (4 μM peptide), the “memory T-cell recall response” value is reported as “positive”.

Consider “LIFLARSALILRkvsvrILSIYSTVASSLALAI [AATkABW2]”, for which the “memory T-cell recall response” value in experiment [1] (4 μM peptide) was “positive”. Take “NAELLVALENQHTIkvsvrLIFLARSALILR (NAELLVALENQHTIKVSVRLIFLARSALILR) [3120tkAAT]”: the “memory T-cell recall response” value in experiment [1] (4 μM peptide) is listed as “positive”. As to “TLLYVLFEVPMGLPILMQYIKANSKFIGI [AdVpTT830]”, in experiment [1] (human PBMC, 4 μM peptide), the “effect of insertion of a cathepsin cleavage site on activity of the AdV epitope” value was “eliminated activity of the AdV epitope”. On to “TLLYVLFEVkvsvr NNFTVSFWLRVPKVSASHLET (TLLYVLFEV[dK][dV][dS][dV][dR]NNFTVSFWLRVPKVSASHLET) [AdVkTT950]”, for which the “response of individual peptides and of heterodimeric peptides lacking a cathepsin cleavage site, compared with the response to this peptide” value in experiment [1] (4 μM peptide) is “weaker response”. Consider “TLLYVLFEVkvsvrQSIALSSLMVAQ (TLLYVLFEV[dK][dV][dS][dV][dR]QSIALSSLMVAQ) [AdVkDTt]”, for which the “response of individual peptides and of heterodimeric peptides lacking a cathepsin cleavage site, compared with the response to this peptide” value in experiment [1] (4 μM peptide) was “weaker response”. As to “VSTYMLTNSELLSLINDkvsvrAGFYHILNNPKASL [VSTkAGF]”, in the experiment with human PBMC, the “memory T-cell response (IFN-γ Elispot spots, normalized to non-stimulated controls)” value is given as “highest memory T-cell response” and the “number of donors showing a recall” value amounted to 5 donors. On to “VWLYNQIALQLKNHAkvsvrAGFYHILNNPKASL [VWLkAGF]”, for which, in the experiment on human PBMC, the “memory T-cell response (IFN-γ Elispot spots, normalized to non-stimulated controls)” value is reported as “highest memory T-cell response” and the “number of donors showing a recall” value was found to be 5 donors.
